Assay results as given in ChEMBL document CHEMBL1147253, “New polyoxygenated farnesylcyclohexenones, deacetoxyyanuthone A and its hydro derivative from the marine-derived fungus Penicillium sp” (2003).
≈ marks a conversion by molar mass, not a printed value.

Columns and labels:
Format in all cases: functional
Details in all cases: read-out: ED50 (the source's name)
XF498 = assay: Cytotoxicity against human XF498 cells
A549 = assay: Cytotoxicity against human A549 cells
SK-MEL-2 = assay: Cytotoxicity against human SK-MEL-2 cells
HCT-15 = assay: Cytotoxicity against human HCT15 cells
SK-OV-3 = assay: Cytotoxicity against human SKOV3 cells

Row | Compound | EC50 (XF498) [µg/mL] | EC50 (A549) [µg/mL] | EC50 (SK-MEL-2) [µg/mL] | EC50 (HCT-15) [µg/mL] | EC50 (SK-OV-3) [µg/mL]
1 | CC(C)=CCC/C(C)=C/CC/C(C)=C/C[C@@]12O[C@@H]1[C@H](O)C(C)=CC2=O | 10 (≈ 29.1 µM) | 7.74 (≈ 22.5 µM) | 3.86 (≈ 11.2 µM) | 10.1 (≈ 29.2 µM) | 6.35 (≈ 18.4 µM)
2 | CC(C)=CCC/C(C)=C\CC/C(C)=C\Cc1cc(O)c(C)cc1O | 5.94 (≈ 18.1 µM) | 4.73 (≈ 14.4 µM) | 4.8 (≈ 14.6 µM) | 6.11 (≈ 18.6 µM) | 5.31 (≈ 16.2 µM)
3 | CC(C)=CCC/C(C)=C\CC/C(C)=C\CC1=CC(=O)C(C)=CC1=O | 38.1 (≈ 117 µM) | 25.4 (≈ 77.9 µM) | 18.4 (≈ 56.4 µM) | 42.6 (≈ 130 µM) | 37.3 (≈ 114 µM)
4 | COc1cccc2c1C(=O)c1c(O)c3c(c(O)c1C2=O)C[C@@](O)(C(=O)CO)C[C@@H]3O[C@H]1C[C@H](N)[C@H](O)[C@H](C)O1 [DOXORUBICIN] | 0.02 (≈ 0.0368 µM) | 0.02 (≈ 0.0368 µM) | 0.04 (≈ 0.0736 µM) | 0.79 (≈ 1.45 µM) | 0.09 (≈ 0.166 µM)
